Measurements: patent US7776862B2, “Pyridyl and phenyl substituted piperazine-piperidines with CXCR3 antagonist activity” (Schering Corporation, priority 2005, dated 2010)

Each compound was assayed against T1, human CXCR3 (N-delta 4) (Homo sapiens, UniProt P49682) (assay: Human CXCR3 (N-delta 4) scintillation proximity assay (SPA), [125I] IP-10 binding). Conditions: IC50 rating; Ba/F3-hCXCR3 (N-delta 4) membranes, 25 pM [125I] IP-10.
T1 construct: CD8 leader; Flag tag; expressed in transfected cells; membranes used
T1 sequence (P49682 5-368 limits assumed): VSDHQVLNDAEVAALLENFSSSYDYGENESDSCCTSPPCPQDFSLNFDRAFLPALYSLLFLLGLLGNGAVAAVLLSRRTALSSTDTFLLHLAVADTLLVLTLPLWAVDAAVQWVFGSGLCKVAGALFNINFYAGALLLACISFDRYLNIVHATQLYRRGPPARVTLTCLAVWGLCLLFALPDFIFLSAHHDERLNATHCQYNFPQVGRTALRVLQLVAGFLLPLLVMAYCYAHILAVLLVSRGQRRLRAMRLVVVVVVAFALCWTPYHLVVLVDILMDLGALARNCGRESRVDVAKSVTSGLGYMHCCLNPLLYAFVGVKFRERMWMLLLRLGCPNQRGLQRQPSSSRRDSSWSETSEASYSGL
From the text: The inventive compounds can readily be evaluated to determine activity at the CXCR3 receptors by known methods, such as, for example, development of a human CXCR3 (N-delta 4) Binding Assay.
Cloning and expression of human CXCR3 (N-delta 4):
The DNA encoding human CXCR3 was cloned by PCR using human genomic DNA (Promega, Madison, Wis.) as a template. The PCR primers were designed based on the published sequence of human orphan receptor GPR9 (1) with incorporated restriction sites, a Kozak consensus sequence, CD8 leader and Flag tag. The PCR product was subcloned into the mammalian expression vector pME18Sneo, a derivative of the SR-alpha expression vector (designated as pME18Sneo-hCXCR3 (N-delta 4).
IL-3-dependent mouse pro-B cells Ba/F3 were transfected by electroporation in 0.4 ml Dulbecco's PBS containing 4×10^6 cells with 20 μg of pME18Sneo-hCXCR3 (N-delta 4) plasmid DNA. Cells were pulsed at 400 Volts, 100 OHMs, 960 μFd. The transfected cells were under selection with 1 mg/ml G418 (Life Technologies, Gaithersburg, Md.). […] IP-10 (NEN Life Science Products, Boston, Mass.).
Preparation of Ba/F3-hCXCR3 (N-delta 4) membranes:
Ba/F3 cells expressing human CXCR3 (N-delta 4) were pelleted and resuspended in the lysis buffer containing 10 mM HEPES, pH 7.5 and Complete® protease inhibitors (1 tablet per 100 ml) (Boehringer Mannheim, Indianapolis, Ind.) at a cell density of 20×10^6 cells per ml. […] Large cellular debris was removed by centrifugation at 1,000×g. Cell membrane in the supernatant was sedimented at 100,000×g. The membrane was resuspended in the lysis buffer supplemented with 10% sucrose and stored at −80° C. Total protein concentration of the membrane was determined by BCA method from Pierce (Rockford, Ill.).
Human CXCR3 (N-delta 4) scintillation proximity assay (SPA):
The beads were spun down, washed once, resuspended in the binding buffer and transferred to a 96-well Isoplate (Wallac, Gaithersburg, Md.). […] IP-10 with tested compounds in a series of titration were added to start the reaction.

Row | IC50 [nM] | SMILES
1 | 25 to 100 | O=C(NCc1ccc(Cl)cc1F)c1cnc(N2CCN(C3CCN(Cc4ccc(Br)cc4)CC3)CC2)c(Cl)c1 [compound 105]
2 | 25 to 100 | O=C(NCc1ccc(F)cc1)c1cnc(N2CCN(C3CCN(Cc4ccc(F)c(F)c4)CC3)CC2)c(Cl)c1 [compound 106]
3 | 25 to 100 | N#Cc1ccc(CN2CCC(N3CCN(c4ncc(C(=O)NCc5ccc(F)c(Cl)c5)cc4Cl)CC3)CC2)cc1 [compound 107]
4 | 25 to 100 | O=C(NCc1ccc(F)c(Cl)c1)c1cnc(N2CCN(C3CCN(Cc4ccc(Br)cc4)CC3)CC2)c(Cl)c1 [compound 108]
5 | 25 to 100 | O=C(NCc1ccc(Br)cc1)c1cnc(N2CCN(C3CCN(Cc4ccc(F)cc4)CC3)CC2)c(Cl)c1 [compound 109]
6 | 25 to 100 | COc1ccc(CN2CCC(N3CCN(c4ncc(C(=O)NCc5ccc(Cl)cc5F)cc4Cl)CC3)CC2)cc1 [compound 111]
7 | 25 to 100 | O=C(NCCOc1ccccc1)c1cnc(N2CCN(C3CCN(Cc4ccc([N+](=O)[O-])cc4)CC3)CC2)c(Cl)c1 [compound 112]
8 | 25 to 100 | O=C(NCc1ccc(F)cc1)c1cnc(N2CCN(C3CCN(Cc4ccc(Br)cc4)CC3)CC2)c(Cl)c1 [compound 113]
9 | 25 to 100 | N#Cc1ccc(CN2CCC(N3CCN(c4ncc(C(=O)NCc5ccc(Br)cc5)cc4Cl)CC3)CC2)cc1 [compound 114]
10 | 25 to 100 | O=C(NCc1ccc(Cl)c(Cl)c1)c1cnc(N2CCN(C3CCN(Cc4ccc(Cl)c(F)c4)CC3)CC2)c(Cl)c1 [compound 115]
11 | 25 to 100 | COc1ccc(CN2CCC(N3CCN(c4ncc(C(=O)NCc5ccc(F)c(F)c5)cc4Cl)CC3)CC2)cc1 [compound 116]
12 | 25 to 100 | COc1ccc(CN2CCC(N3CCN(c4ncc(C(=O)NCc5ccc(F)c(Cl)c5)cc4Cl)CC3)CC2)cc1 [compound 117]
13 | 25 to 100 | O=C(NCc1cccc(Cl)c1)c1cnc(N2CCN(C3CCN(Cc4ccc(F)c(F)c4)CC3)CC2)c(Cl)c1 [compound 118]
14 | 25 to 100 | O=C(NCc1ccc(Cl)cc1Cl)c1cnc(N2CCN(C3CCN(Cc4ccc(F)cc4)CC3)CC2)c(Cl)c1 [compound 119]
15 | 25 to 100 | N#Cc1ccc(CN2CCC(N3CCN(c4ncc(C(=O)NCc5ccc(Cl)cc5F)cc4Cl)CC3)CC2)cc1 [compound 120]
16 | 25 to 100 | O=C(NCc1ccc(F)c(F)c1)c1cnc(N2CCN(C3CCN(Cc4ccc(Cl)c(F)c4)CC3)CC2)c(Cl)c1 [compound 121]
17 | 25 to 100 | CC1CN(C2CCN(Cc3ccc(Cl)cc3)CC2)CCN1c1ncc(C(=O)NCc2ccc(Cl)c(Cl)c2)cc1Cl (stereo not shown) [compound 122]
18 | 25 to 100 | O=C(NCCOc1ccccc1)c1cnc(N2CCN(C3CCN(Cc4ccc(Cl)c(F)c4)CC3)CC2)c(Cl)c1 [compound 123]
19 | 25 to 100 | COc1ccc(CN2CCC(N3CCN(c4ncc(C(=O)NCc5ccc(Cl)c(Cl)c5)cc4Cl)CC3)CC2)cc1 [compound 124]
20 | 25 to 100 | O=C(NCc1ccc(Cl)cc1F)c1cnc(N2CCN(C3CCN(Cc4ccc(Cl)cc4)CC3)CC2)c(Cl)c1 [compound 125]
21 | 25 to 100 | N#Cc1ccc(CN2CCC(N3CCN(c4ncc(C(=O)NCc5ccc(Cl)cc5)cc4Cl)CC3)CC2)cc1 [compound 126]
22 | 25 to 100 | O=C(NCc1ccc(F)cc1F)c1cnc(N2CCN(C3CCN(Cc4ccc(Cl)c(F)c4)CC3)CC2)c(Cl)c1 [compound 127]
23 | 25 to 100 | O=C(NCc1ccc(F)cc1F)c1cnc(N2CCN(C3CCN(Cc4ccc([N+](=O)[O-])cc4)CC3)CC2)c(Cl)c1 [compound 128]
24 | 25 to 100 | N#Cc1ccc(CN2CCC(N3CCN(c4ncc(C(=O)NCc5ccc(F)c(F)c5)cc4Cl)CC3)CC2)cc1 [compound 129]
25 | 25 to 100 | CC1CN(C2CCN(Cc3ccc(Cl)cc3)CC2)CCN1c1ncc(C(=O)NCCOc2ccccc2)cc1Cl (stereo not shown) [compound 130]

Row | IC50 [nM] | SMILES
26 | 25 to 100 | O=C(NCc1ccc(Br)cc1)c1cnc(N2CCN(C3CCN(Cc4ccc([N+](=O)[O-])cc4)CC3)CC2)c(Cl)c1 [compound 131]
27 | 25 to 100 | O=C(NCc1ccc(F)cc1F)c1cnc(N2CCN(C3CCN(Cc4ccc(F)c(F)c4)CC3)CC2)c(Cl)c1 [compound 132]
28 | 25 to 100 | O=C(NCc1ccc(Cl)cc1Cl)c1cnc(N2CCN(C3CCN(Cc4ccc(Cl)c(F)c4)CC3)CC2)c(Cl)c1 [compound 133]
29 | 25 to 100 | O=C(NCc1ccc(Cl)cc1F)c1cnc(N2CCN(C3CCN(Cc4ccc(F)cc4)CC3)CC2)c(Cl)c1 [compound 134]
30 | 25 to 100 | O=C(NCc1ccc(Cl)c(Cl)c1)c1cnc(N2CCN(C3CCN(Cc4ccc(F)cc4)CC3)CC2)c(Cl)c1 [compound 135]
31 | 25 to 100 | O=C(NCc1ccc(Br)cc1)c1cnc(N2CCN(C3CCN(Cc4ccc(Cl)cc4)CC3)CC2)c(Cl)c1 [compound 136]
32 | 25 to 100 | COc1ccc(CN2CCC(N3CCN(c4ncc(C(=O)NCc5ccc(Br)cc5)cc4Cl)CC3)CC2)cc1 [compound 137]
33 | 25 to 100 | CNC(=O)c1cnc(N2CCN(C3CCN(Cc4ccc(Cl)cc4)CC3)CC2C)c(Cl)c1 (stereo not shown) [compound 138]
34 | 25 to 100 | O=C(NCc1ccc(F)cc1)c1cnc(N2CCN(C3CCN(Cc4ccc(Cl)c(F)c4)CC3)CC2)c(Cl)c1 [compound 139]
35 | 25 to 100 | O=C(NCc1ccc(Cl)cc1F)c1cnc(N2CCN(C3CCN(Cc4ccc(F)c(F)c4)CC3)CC2)c(Cl)c1 [compound 140]
36 | 25 to 100 | O=C(NCc1ccc(Cl)cc1Cl)c1cnc(N2CCN(C3CCN(Cc4ccc(F)c(F)c4)CC3)CC2)c(Cl)c1 [compound 141]
37 | 25 to 100 | O=C(NCc1ccc(Cl)cc1Cl)c1cnc(N2CCN(C3CCN(Cc4ccc([N+](=O)[O-])cc4)CC3)CC2)c(Cl)c1 [compound 142]
38 | 25 to 100 | CC1CC(N2CCN(c3ncc(C(=O)NCc4ccc(Cl)c(Cl)c4)cc3Cl)CC2)CCN1Cc1ccc(C#N)cc1 (stereo not shown) [compound 143]
39 | 25 to 100 | O=C(NCc1ccc(F)c(Cl)c1)c1cnc(N2CCN(C3CCN(Cc4ccc(F)cc4)CC3)CC2)c(Cl)c1 [compound 144]
40 | 25 to 100 | N#Cc1ccc(CN2CCC(N3CCN(c4ncc(C(=O)NCc5ccc(Cl)c(Cl)c5)cc4Br)CC3)CC2)cc1 [compound 145]
41 | 25 to 100 | CC[C@H]1CN(c2ncc(C(N)=O)cc2Cl)CCN1C1CCN(C(=O)c2ccc(Cl)cc2N2CCOC2=O)CC1 [compound 146]
42 | 25 to 100 | O=C(NCc1ccc(Cl)c(Cl)c1)c1cnc(N2CCN(C3CCN(Cc4ccc(F)c(F)c4)CC3)CC2)c(Cl)c1 [compound 147]
43 | 25 to 100 | O=C(NCc1cccc(Cl)c1)c1cnc(N2CCN(C3CCN(Cc4ccc([N+](=O)[O-])cc4)CC3)CC2)c(Cl)c1 [compound 148]
44 | 25 to 100 | O=C(NCc1ccc(Cl)cc1Cl)c1cnc(N2CCN(C3CCN(Cc4ccc(Cl)cc4)CC3)CC2)c(Cl)c1 [compound 149]
45 | 25 to 100 | O=C(NCc1ccc(F)c(Cl)c1)c1cnc(N2CCN(C3CCN(Cc4ccc(Cl)cc4)CC3)CC2)c(Cl)c1 [compound 150]
46 | 25 to 100 | O=C(NCc1ccc(Cl)cc1)c1cnc(N2CCN(C3CCN(Cc4ccc(F)cc4)CC3)CC2)c(Cl)c1 [compound 151]
47 | 25 to 100 | C[C@@H]1CN(c2ncc(C(=O)NCc3ccc(F)c(F)c3)cc2Cl)CCN1C1CCN(Cc2ccc(Cl)cc2)CC1 [compound 152]
48 | 25 to 100 | O=C(NCc1ccc(Cl)cc1)c1cnc(N2CCN(C3CCN(Cc4ccc([N+](=O)[O-])cc4)CC3)CC2)c(Cl)c1 [compound 153]
49 | 25 to 100 | O=C(NCc1ccc(F)c(Cl)c1)c1cnc(N2CCN(C3CCN(Cc4ccc(F)c(F)c4)CC3)CC2)c(Cl)c1 [compound 154]
